# Reference: ChEMBL document CHEMBL4418497, “Compositions and methods relating to inhibiting serine hyrdoxymethyltransferase 2 activity” (2016)
# Molecular target: T1, Serine hydroxymethyltransferase, mitochondrial (Homo sapiens, UniProt P34897)
# T1 sequence (P34897 whole entry): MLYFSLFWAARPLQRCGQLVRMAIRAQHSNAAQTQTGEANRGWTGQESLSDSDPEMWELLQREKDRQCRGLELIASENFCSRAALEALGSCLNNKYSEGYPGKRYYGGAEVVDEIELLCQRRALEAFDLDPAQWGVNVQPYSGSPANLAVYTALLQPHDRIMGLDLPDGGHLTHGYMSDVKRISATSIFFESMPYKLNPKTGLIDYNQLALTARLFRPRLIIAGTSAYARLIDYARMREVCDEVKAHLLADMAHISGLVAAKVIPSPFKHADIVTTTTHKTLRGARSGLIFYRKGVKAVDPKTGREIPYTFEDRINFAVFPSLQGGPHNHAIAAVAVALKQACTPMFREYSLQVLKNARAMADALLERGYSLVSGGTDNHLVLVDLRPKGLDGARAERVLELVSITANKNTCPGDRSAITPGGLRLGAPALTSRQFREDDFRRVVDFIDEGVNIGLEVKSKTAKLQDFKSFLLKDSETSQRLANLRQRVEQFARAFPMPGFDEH
# Assay: Inhibition of His-tagged human recombinant SHMT2 expressed in Escherichia coli BLR(DE3) assessed as reduction in NADPH level using L-serine, THF and NADP+ incubated for 5 mins by SHMT2-MTHFD coupled reaction based fluorescence assay
# Conditions: read-out: IC50
row,IC50 [µM],SMILES
1,2.34,O=C(Nc1cccc2c1CCCC2)N1CCSc2ncccc21
2,2.75,Fc1ccc(NCc2ccc3nccnc3c2)c(F)c1
3,6.76,Cn1cc(NC(=O)NCCN2CCOCC2)c2ccccc2c1=O
4,4.37,COc1cccc(C2CC(=O)N3CN(c4ccc(OC)cc4OC)CSC3=C2C#N)c1 (stereo unspecified)
5,4.17,Cc1c(C(=O)NCCCN2CCOCC2)oc2c1-c1[nH]ncc1CC2
6,11.5,COc1cc(NC2=C(c3ccccc3)C(=O)c3ccccc32)cc(OC)c1
7,3.09,CC(=O)Nc1ccc2nc(SCc3cc(=O)n4nc(C)sc4n3)sc2c1
8,2.51,CC(C)CCNC(=O)CSc1nc2ncccc2o1
9,3.72,CC(=O)Oc1cc2c(C(=O)NCC3CCCO3)c(C)oc2c2ccccc12 (stereo unspecified)
10,10.5,CCOc1ccc(C2CC(=O)N3CN(c4ccc(OCC)cc4)CSC3=C2C#N)cc1 (stereo unspecified)
11,3.31,COc1ccc(Nc2nc(Nc3ccccc3)c3cnn(C)c3n2)c(OC)c1
12,6.03,COC(=O)Cn1cc2c(n1)-c1c(oc(C(=O)N3CCCC3)c1C)CC2
13,1.66,CC(C)Cn1cc(NC(=O)NCCc2ccsc2)c2ccccc2c1=O
14,1.58,CCCCC(=O)Nc1cc(F)c2nc(N3CCOCC3)ccc2c1
15,2.4,COc1ccc(OC)c(Nc2c(-c3ccc4c(c3)CCCC4)c(=O)c2=O)c1
16,4.37,COc1cc(C2CC(=O)N3CN(C4CCCCC4)CSC3=C2C#N)ccc1O (stereo unspecified)
17,6.76,COc1cc(NC(=O)C2=Cc3sc(C)c(C)c3CS2)cc(OC)c1
18,2.4,CC(C)Cn1cc(NC(=O)Nc2ccccc2)c2ccccc2c1=O
19,2.34,O=C1CN(C(=O)COc2cccc3ccccc23)c2ccccc2N1
20,1.55,CCC(=O)Nc1cc(F)c2nc(N3CCOCC3)ccc2c1
21,6.46,CCOC(=O)C1CCCN(C(=O)Nc2cn(C)c(=O)c3ccccc23)C1 (stereo unspecified)
22,4.47,Cn1cc(NC(=O)NCC2CCCO2)c2ccccc2c1=O (stereo unspecified)

row,IC50 [µM],SMILES
1,12.3,CCc1nnc2c3ccccc3nc(Nc3ccc(OC)c(OC)c3)n12
2,4.79,CN(C)c1ccc(NC(=O)C2CC=CCC2C(=O)O)cc1 (stereo unspecified)
3,2.51,Cc1nc(SCC(=O)Nc2cccc3nsnc23)oc1C
4,1.62,C=CCNc1nc(Nc2ccc(OC)cc2)c2cnn(C)c2n1
5,2.45,CC(C)Cn1cc(NC(=O)NCCN2CCN(C)CC2)c2ccccc2c1=O
6,3.89,CN1CCc2nc3sc(C(=O)c4ccc(Cl)cc4)c(N)c3cc2C1
7,3.16,Cc1c(C(=O)N2CCOCC2)oc2c1-c1nn(CC(=O)NC3CCCCC3C)cc1CC2 (stereo unspecified)
8,13.8,CNc1nc(Nc2ccc(OC)cc2)c2cnn(C)c2n1
9,2.95,COc1cc(OC)c(NC(=O)Nc2cn(CC(C)C)c(=O)c3ccccc23)cc1Cl
10,2.63,O=C(CSc1nc2ncccc2o1)Nc1ccc(S(=O)(=O)N2CCOCC2)cc1
11,2.24,CC(C)Cn1cc(NC(=O)Nc2cccnc2)c2ccccc2c1=O
12,5.13,CCCN1CCN(CCCNC(=O)c2oc3c(c2C)-c2[nH]ncc2CC3)CC1
13,3.8,CN1CCN(CCCNC(=O)c2ccc(N3CCSc4ncccc43)s2)CC1
14,4.57,COc1cc(OC)c(NC(=O)NCCc2csc(C)c2C)cc1Cl
15,3.47,COc1ccc(NC(=O)N2CCC3(CC2)Nc2ccccc2-n2cccc23)c(OC)c1
16,4.79,Cn1cc(NC(=O)NCc2ccccn2)c2ccccc2c1=O
17,0.71,CCOC(=O)CSc1nc2ccc(N)cc2s1
18,4.47,Cc1ccc2oc(SCC(=O)Nc3cccc(N4CCCC4=O)c3)nc2n1
19,2.57,COc1cc(NC(=O)N2CCSc3ncccc32)cc(OC)c1
20,7.94,Cc1c(C(=O)NCc2cccs2)oc2c1-c1[nH]ncc1CC2
21,2.04,COc1ccc2nc(NC(=O)Nc3cn(CC(C)C)c(=O)c4ccccc34)sc2c1
22,3.89,CC(C)Cn1cc(NC(=O)N(Cc2ccco2)CC2CCCO2)c2ccccc2c1=O (stereo unspecified)

row,IC50 [µM],SMILES
1,6.92,COc1ccc(Cl)cc1N(C)C(=O)Nc1cn(C)c(=O)c2ccccc12
2,2.57,O=C(Nc1cc(F)c2nc(N3CCCC3)ccc2c1)C1CCCCC1
3,3.89,COc1ccc(OC)c(NS(=O)(=O)c2cc(-c3cc(C)no3)ccc2C(C)C)c1
4,4.07,Cc1nn(C)c(C)c1CNC(=O)Nc1ccc2c(c1)OCCO2
5,6.76,O=C1CN(S(=O)(=O)c2ccc3[nH]c4c(c3c2)CCCC4)c2ccccc2N1
6,3.63,COc1cccc(NS(=O)(=O)c2ccc3c4c2CC(=O)N4CC(C)S3)c1 (stereo unspecified)
7,2.57,CC(C)CC(=O)Nc1cc(F)c2nc(N3CCOCC3)ccc2c1
8,5.01,Cc1ccc2c(c1)c1c(n2CC(O)CNCCO)C(=O)CCC1 (stereo unspecified)
9,4.68,Cn1cc(NC(=O)NCC2COc3ccccc3O2)c2ccccc2c1=O (stereo unspecified)
10,8.13,CCOC(=O)c1c(S(=O)(=O)Nc2ccc(OC)c(OC)c2)c(C)n(C)c1C
11,7.59,O=C(Nc1ccc(Br)cc1F)N1CCSc2ncccc21
12,8.51,Cc1cc(CNC(=O)Nc2ccc3c(c2)OCCO3)c(C)n1-c1ccc(Cl)cc1
13,3.8,CC(C)Cn1cc(NC(=O)Nc2ccc(Cl)cn2)c2ccccc2c1=O
14,2.34,COCCCNc1nc(Nc2ccc(OC)cc2)c2cnn(C)c2n1
15,3.72,COc1cc(OC)c(N(C)C(=O)Nc2cn(C)c(=O)c3ccccc23)cc1Cl
16,2.14,CCc1ccc(NS(=O)(=O)c2ccc3c4c2CC(=O)N4CC(C)S3)cc1 (stereo unspecified)
17,2.75,CC(C)Cn1cc(NC(=O)NC(C)c2ccccc2)c2ccccc2c1=O (stereo unspecified)
18,5.5,CCOC(=O)C1CCCN(c2cc(C(=O)O)c3cc(N)ccc3n2)C1 (stereo unspecified)
19,3.24,COc1ccc(OC)c(NC(=O)N2CCN(S(=O)(=O)c3ccc4c(ccn4C)c3)CC2)c1
20,7.94,CCC1c2ccc(C)n2CCN1C(=O)Nc1cc(OC)cc(OC)c1 (stereo unspecified)
21,10.2,C=CCn1c(=O)sc2cc(NC(=O)Cc3ccc(F)cc3)ccc21
22,4.17,COc1cc(OC)c(NC(=O)N2CCC3(CC2)Nc2cc(F)ccc2-n2cccc23)cc1Cl

row,IC50 [µM],SMILES
1,8.51,CCC1=NN(c2ccccc2)C(=O)C1
2,3.39,COc1ccc(NCc2cccn2-c2nnc(N3CCCCC3)s2)cc1OC
3,2.95,COc1ccc(N2C(=O)c3cccnc3C2Nc2ccc(OC)c(OC)c2)cc1 (stereo unspecified)
4,8.51,Cn1c(=O)oc2cc(S(=O)(=O)N3CCC4(CC3)Nc3cc(F)ccc3-n3cccc34)ccc21
5,0.54,COc1ccc(-c2nc3c4nsnc4ccc3n2C)cc1Br
6,2.95,COC(=O)c1sc(=S)n(-c2ccc3c(c2)OCO3)c1N
7,2.51,CC(C)Cn1cc(NC(=O)N2CCC(C(N)=O)(N3CCCCC3)CC2)c2ccccc2c1=O
8,2.75,O=C(CSc1nc2ncccc2o1)Nc1ccc(S(=O)(=O)Nc2ccc(F)cc2)cc1
9,1.17,O=C(Nc1cc(F)c2nc(N3CCOCC3)ccc2c1)C1CC1
10,3.55,O=C(Nc1cc(F)c2nc(N3CCOCC3)ccc2c1)c1ccco1
11,2.57,COc1ccc(OC)c(CNC(=O)Nc2cn(C)c(=O)c3ccccc23)c1
12,2.04,Cn1cnc2cc(NCc3ccco3)ccc21
13,9.33,Cn1cc(NC(=O)N2CCCCC2)c2ccccc2c1=O
14,4.79,O=C(Nc1ccc2c(c1)OCCO2)N1CCc2c([nH]c3ccccc23)C1c1ccccc1F (stereo unspecified)
15,4.57,CC(C)Cn1cc(NC(=O)N2CCN(C(=O)c3ccco3)CC2)c2ccccc2c1=O
16,4.57,CC(=O)Nc1ncc2c(n1)CC(c1ccco1)CC2=O (stereo unspecified)
17,10,COc1ccc(OC)c(Nc2c(-c3cc(C)c(C)cc3C)c(=O)c2=O)c1
18,6.46,CCOC(=O)C1CCN(c2cc(C(=O)O)c3cc(N)ccc3n2)CC1
19,4.47,Nc1ncccc1NC(=O)CCC(=O)O
20,9.77,CC(C)NC(=O)N1CCC2(CC1)Nc1cc(F)ccc1-n1cccc12
21,7.76,COc1ccc(NS(=O)(=O)c2cc(Br)cnc2N)cc1OC
22,9.77,COc1ccc(NC(=O)n2ncc3cc(Cl)ccc32)cc1OC

row,IC50 [µM],SMILES
1,1.82,O=C(CSc1nc2ncccc2o1)Nc1ccc(Br)cc1F
2,4.27,CC(C)Cn1cc(NC(=O)Nc2cc(F)ccc2F)c2ccccc2c1=O
3,5.13,CNC(=O)c1oc2c(c1C)C1N=C(C)SC1CC2 (stereo unspecified)
4,8.13,COc1cc(NC(=O)C2CCC2)cc2sc(NS(=O)(=O)c3ccccc3)nc12
5,2.51,CCC(Sc1nc2ncccc2o1)C(=O)Nc1c(C)cc(C)cc1C (stereo unspecified)
6,5.75,Cn1cc(NC(=O)NCc2cccnc2)c2ccccc2c1=O
7,2.69,COc1cc(OC)c(NC(=O)N2CCN3CCCCC3C2)cc1Cl (stereo unspecified)
8,2.88,CC(=O)Oc1cc2c(C(=O)N3CCN(c4ccccc4)CC3)c(C)oc2c2ccccc12
9,2,COc1ccc(Cl)cc1NC(=O)N1CC2CCCN2c2ccccc21 (stereo unspecified)
10,4.57,CCCCN1CCS(=O)(=O)c2c(Cl)c(N3CCOCC3)nc(Oc3ccc(F)cc3)c21
11,15.5,COc1ccc(OC)c(NC2c3ncccc3C(=O)N2c2ccccc2)c1 (stereo unspecified)
12,3.09,O=C(Nc1ccc2c(c1)OCCO2)N1Cc2ccccc2Oc2ncccc21
13,14.1,CCOC(=O)c1nc(Nc2cc(OC)ccc2OC)c2ccccc2n1
14,2.45,COc1ccc(Nc2nc(Nc3ccc(OC)c(Cl)c3)c3cnn(C)c3n2)c(OC)c1
15,9.77,O=C1c2ccccc2C(Nc2ccc3[nH]c(-c4cccnc4)nc3c2)N1Cc1ccco1 (stereo unspecified)
16,8.32,COc1ccc(Nc2nnc(-n3nc(C)cc3C)c3ccccc23)cc1OC
17,3.89,COc1ccc(Nc2nnc(Cc3ccncc3)c3ccccc23)c(OC)c1
18,4.07,COc1ccc(OC)c(NS(=O)(=O)c2ccc3c(c2)S(=O)(=O)NC=N3)c1
